Assay results: the supplement of paper PMC10307832

Assays:
Assay in all cases: relative viability (nuclei count vs DMSO), 5 days (fraction); higher = more cells survive
Ruxolitinib + AZD7762 = compound: N#CC[C@H](C1CCCC1)n1cc(-c2ncnc3[nH]ccc23)cn1 [Ruxolitinib] + NC(=O)Nc1cc(-c2cccc(F)c2)sc1C(=O)N[C@H]1CCCNC1 [AZD7762] (partner 0.2 µM)
Procedure, shortened: (§1)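 Relative viability is defined as nuclei in treated wells over nuclei in vehicle wells. Duplicate plates were run and medians reported. Lung cancer cell lines in 1536-well plates were dosed by pin tool one day after seeding, with one drug or with a fixed anchor-drug dose plus five library-drug doses (not always all listed) in √10 steps, and nuclei were counted after 5 days.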

Vismodegib + Navitoclax = compound: CS(=O)(=O)c1ccc(C(=O)Nc2ccc(Cl)c(-c3ccccn3)c2)c(Cl)c1 [Vismodegib] + CC1(C)CCC(c2ccc(Cl)cc2)=C(CN2CCN(c3ccc(C(=O)NS(=O)(=O)c4ccc(N[C@H](CCN5CCOCC5)CSc5ccccc5)c(S(=O)(=O)C(F)(F)F)c4)cc3)CC2)C1 [Navitoclax] (partner 0.5 µM)
Procedure, shortened: as §1

Ruxolitinib + Vorinostat = compound: N#CC[C@H](C1CCCC1)n1cc(-c2ncnc3[nH]ccc23)cn1 [Ruxolitinib] + O=C(CCCCCCC(=O)Nc1ccccc1)NO [Vorinostat] (partner 1 µM)
Procedure, shortened: as §1

Ruxolitinib + Decitabine = compound: N#CC[C@H](C1CCCC1)n1cc(-c2ncnc3[nH]ccc23)cn1 [Ruxolitinib] + Nc1ncn([C@H]2C[C@H](O)[C@@H](CO)O2)c(=O)n1 [Decitabine] (partner 2 µM)
Procedure, shortened: as §1

Cell Line	relative viability (Ruxolitinib + AZD7762; first compound 0.08 µM)	relative viability (Ruxolitinib + AZD7762; first compound 0.8 µM)	relative viability (Ruxolitinib + AZD7762; first compound 2.53 µM)	relative viability (Ruxolitinib + AZD7762; first compound 8 µM)	relative viability (Vismodegib + Navitoclax; first compound 0.08 µM)	relative viability (Vismodegib + Navitoclax; first compound 0.253 µM)	relative viability (Vismodegib + Navitoclax; first compound 0.8 µM)	relative viability (Vismodegib + Navitoclax; first compound 2.53 µM)	relative viability (Vismodegib + Navitoclax; first compound 8 µM)	relative viability (Ruxolitinib + Vorinostat; first compound 0.08 µM)	relative viability (Ruxolitinib + Vorinostat; first compound 0.253 µM)	relative viability (Ruxolitinib + Vorinostat; first compound 0.8 µM)	relative viability (Ruxolitinib + Vorinostat; first compound 2.53 µM)	relative viability (Ruxolitinib + Vorinostat; first compound 8 µM)	relative viability (Ruxolitinib + Decitabine; first compound 0.08 µM)	relative viability (Ruxolitinib + Decitabine; first compound 0.253 µM)	relative viability (Ruxolitinib + Decitabine; first compound 0.8 µM)	relative viability (Ruxolitinib + Decitabine; first compound 2.53 µM)	relative viability (Ruxolitinib + Decitabine; first compound 8 µM)	relative viability (Ruxolitinib + AZD7762; first compound 0.253 µM)
RERF-LC-KJ	0.949	1	0.98	1.01	0.997	1.08	0.85	0.756	0.802	0.73	0.859	0.841	0.867	0.66	0.689	0.812	0.791	0.719	0.589	
NCI-H2126	0.954	1.09	0.995	0.967	0.838	0.846	0.864	0.802	0.766	0.771	0.755	0.853	0.843	0.847	0.559	0.594	0.584	0.631	0.635	1.12
NCI-H460		0.696	0.656	0.676	1.01	0.995	1.28	1.06	1.21	0.847	0.774	0.819	0.599	0.516	0.451	0.408	0.576	0.28	0.388	0.626
NCI-H1395	0.422	0.424	0.356	0.407	1.02	1.09	1.01	1.11	1.23	0.577	0.506	0.743	0.717	0.654	0.698	0.697	0.77	0.69	0.686	0.385
NCI-H647	0.398	0.421	0.439	0.366		1.02	1.18	1.03	1.28	0.694	0.729	0.683	0.538	0.286	0.45	0.351	0.433	0.28	0.344	0.499
NCI-H23	0.456	0.279	0.206	0.277	0.89	0.735	0.926	0.811	0.86	0.668	0.628	0.763	0.642	0.43	0.311	0.337	0.359	0.275	0.305	0.303
H3255	0.783	1.08	0.774	0.743	0.614	0.441	0.462	0.439	0.518		0.9	0.892	0.791	0.382		0.568	0.781	0.535	0.609	0.868
